Laboratory results taken from patent US9156829B2, “Cycloalkyl and heterocycloalkyl compounds as orexin receptor antagonists” (Takeda Pharmaceutical Company Limited, priority 2014, dated 2015).

Key:
human orexin receptor 1 = human orexin receptor 1 (Homo sapiens (Human), UniProt O43613); experiment: Orexin antagonist activity, intracellular calcium FLIPR assay, RBL-2H3 cells expressing human orexin receptor 1; assay type: cell-based; details: RBL-2H3 cells stably expressing human orexin receptor 1; orexin-A at approx. 80% maximal response; compound added 15 minutes before; read-out: Human Orexin1R IC50
human orexin receptor 2 = human orexin receptor 2 (Homo sapiens (Human), UniProt O43614); experiment: Orexin antagonist activity, intracellular calcium FLIPR assay, RBL-2H3 cells expressing human orexin receptor 2; assay type: cell-based; details: RBL-2H3 cells stably expressing human orexin receptor 2; orexin-A at approx. 80% maximal response; compound added 15 minutes before; read-out: Human Orexin2R IC50
Chain of human orexin receptor 2 (O43614 whole entry): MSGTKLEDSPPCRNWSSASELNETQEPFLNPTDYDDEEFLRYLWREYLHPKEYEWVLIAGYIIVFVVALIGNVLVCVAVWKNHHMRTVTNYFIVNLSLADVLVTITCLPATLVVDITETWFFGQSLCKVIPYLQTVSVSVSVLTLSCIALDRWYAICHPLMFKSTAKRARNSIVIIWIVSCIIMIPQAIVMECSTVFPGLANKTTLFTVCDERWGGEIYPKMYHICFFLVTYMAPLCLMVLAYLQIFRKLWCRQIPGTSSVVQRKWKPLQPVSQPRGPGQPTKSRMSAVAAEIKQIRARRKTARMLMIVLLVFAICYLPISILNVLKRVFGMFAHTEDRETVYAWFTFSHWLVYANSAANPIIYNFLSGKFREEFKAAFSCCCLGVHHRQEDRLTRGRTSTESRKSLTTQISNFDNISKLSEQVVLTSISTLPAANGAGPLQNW

Chain of human orexin receptor 1 (O43613 whole entry): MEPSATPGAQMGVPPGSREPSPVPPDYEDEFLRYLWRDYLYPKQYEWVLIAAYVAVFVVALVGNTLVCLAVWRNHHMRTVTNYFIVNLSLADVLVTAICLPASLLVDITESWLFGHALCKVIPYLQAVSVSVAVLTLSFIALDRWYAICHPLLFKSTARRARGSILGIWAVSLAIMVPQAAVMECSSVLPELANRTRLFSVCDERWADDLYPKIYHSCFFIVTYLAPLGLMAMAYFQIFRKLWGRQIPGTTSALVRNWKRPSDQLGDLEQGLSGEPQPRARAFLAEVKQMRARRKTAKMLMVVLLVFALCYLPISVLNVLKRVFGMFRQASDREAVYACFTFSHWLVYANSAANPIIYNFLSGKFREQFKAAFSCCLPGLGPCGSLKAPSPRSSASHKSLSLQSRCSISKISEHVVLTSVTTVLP

Question: `O=C(N[C@H]1CCC[C@@H]1Nc1ncc(C(F)(F)F)cc1F)c1ccccc1-n1nccn1` [Example 105, N-[(1S,2S)-2-{[3-Fluoro-5-(trifluoromethyl)pyridin-2-yl]amino}cyclopentyl]-2-(2H-1,2,3-triazol-2-yl)benzamide] was tested. Which IC50 (human orexin receptor 1) did it give?
Answer: The IC50 was 39 nM.

Question: And the IC50 (human orexin receptor 2)?
Answer: Its IC50 is > 10000 nM.

Question: What does the source list for `O=C(N[C@H]1CCC[C@@H]1Nc1ncc(C(F)(F)F)cc1Cl)c1ccccc1-n1nccn1` [Example 106, N-[(1S,2S)-2-{[3-Chloro-5-(trifluoromethyl)pyridin-2-yl]amino}cyclopentyl]-2-(2H-1,2,3-triazol-2-yl)benzamide]?
Answer: IC50 (human orexin receptor 1): 29 nM; IC50 (human orexin receptor 2): > 10000 nM

Question: For `O=C(N[C@H]1CCC[C@@H]1Nc1ncc(C(F)(F)F)cc1Br)c1ccccc1-n1nccn1` [Example 107, N-[(1S,2S)-2-{[3-Bromo-5-(trifluoromethyl)pyridin-2-yl]amino}cyclopentyl]-2-(2H-1,2,3-triazol-2-yl)benzamide], which IC50 (human orexin receptor 1) is on record?
Answer: The IC50 was 27 nM.

Question: What about the IC50 (human orexin receptor 2) of the same compound?
Answer: Its IC50 is > 10000 nM.

Question: Which results are given for `Cc1cc(C(F)(F)F)cnc1N[C@H]1CCC[C@@H]1NC(=O)c1ccccc1-n1nccn1` [Example 108, N-[(1S,2S)-2-{[3-Methyl-5-(trifluoromethyl)pyridin-2-yl]amino}cyclopentyl]-2-(2H-1,2,3-triazol-2-yl)benzamide]?
Answer: IC50 (human orexin receptor 1): 24 nM; IC50 (human orexin receptor 2): > 10000 nM

Question: `O=C(N[C@H]1CCC[C@@H]1Nc1ncc(C(F)(F)F)nc1C1CC1)c1ccccc1-n1nccn1` [Example 109, N-[(1S,2S)-2-{[3-Cyclopropyl-5-(trifluoromethyl)pyrazin-2-yl]amino}cyclopentyl]-2-(2H-1,2,3-triazol-2-yl)benzamide] was tested. Which IC50 (human orexin receptor 1) did it give?
Answer: Its IC50 is 21 nM.

Question: What about the IC50 (human orexin receptor 2) of the same compound?
Answer: Its IC50 is > 10000 nM.

Question: For `CC(C)c1nc(C(F)(F)F)cnc1N[C@H]1CCC[C@@H]1NC(=O)c1ccccc1-n1nccn1` [Example 110, N-[(1S,2S)-2-{[3-(Propan-2-yl)-5-(trifluoromethyl)pyrazin-2-yl]amino}cyclopentyl]-2-(2H-1,2,3-triazol-2-yl)benzamide], which IC50 (human orexin receptor 1) is on record?
Answer: Its IC50 is 43 nM.

Question: What about the IC50 (human orexin receptor 2) of the same compound?
Answer: The IC50 was 3550 nM.

Question: Which results are given for `CCc1nc(C(F)(F)F)cnc1N[C@H]1CCC[C@@H]1NC(=O)c1ccccc1-n1nccn1` [Example 111, N-[(1S,2S)-2-{[3-Ethyl-5-(trifluoromethyl)pyrazin-2-yl]amino}cyclopentyl]-2-(2H-1,2,3-triazol-2-yl)benzamide]?
Answer: IC50 (human orexin receptor 1): 34 nM; IC50 (human orexin receptor 2): > 10000 nM

Question: For `O=C(N[C@H]1CCC[C@@H]1Nc1cnc(C2CC2)cn1)c1ccccc1-n1nccn1` [Example 112, N-[(1S,2S)-2-[(5-Cyclopropylpyrazin-2-yl)amino]cyclopentyl]-2-(2H-1,2,3-triazol-2-yl)benzamide], which IC50 (human orexin receptor 1) is on record?
Answer: The IC50 was 476 nM.

Question: What about the IC50 (human orexin receptor 2) of the same compound?
Answer: Its IC50 is > 10000 nM.

Question: For `CC(C)c1cnc(N[C@H]2CCC[C@@H]2NC(=O)c2ccccc2-n2nccn2)cn1` [Example 113, N-[(1S,2S)-2-{[5-(Propan-2-yl)pyrazin-2-yl]amino}cyclopentyl]-2-(2H-1,2,3-triazol-2-yl)benzamide], which IC50 (human orexin receptor 1) is on record?
Answer: The IC50 was 67 nM.

Question: And the IC50 (human orexin receptor 2)?
Answer: Its IC50 is > 10000 nM.

Question: `CCc1cnc(N[C@H]2CCC[C@@H]2NC(=O)c2ccccc2-n2nccn2)cn1` [Example 114, N-[(1S,2S)-2-[(5-Ethylpyrazin-2-yl)amino]cyclopentyl]-2-(2H-1,2,3-triazol-2-yl)benzamide] was tested. Which IC50 (human orexin receptor 1) did it give?
Answer: Its IC50 is 997 nM.

Question: What about the IC50 (human orexin receptor 2) of the same compound?
Answer: Its IC50 is > 10000 nM.

Question: What does the source list for `O=C(N[C@H]1CCC[C@@H]1Nc1ccc(OC(F)(F)F)cn1)c1ccccc1-n1nccn1` [Example 115, 2-(2H-1,2,3-Triazol-2-yl)-N-[(1S,2S)-2-{[5-(trifluoromethoxy)pyridin-2-yl]amino}cyclopentyl]benzamide]?
Answer: IC50 (human orexin receptor 1): 175 nM; IC50 (human orexin receptor 2): > 10000 nM

Question: How did the IC50 (human orexin receptor 1) turn out when `O=C(N[C@H]1CCC[C@@H]1Nc1ccc(Br)cn1)c1ccccc1-n1nccn1` [Example 118, N-[(1S,2S)-2-[(5-Bromopyridin-2-yl)amino]cyclopentyl]-2-(2H-1,2,3-triazol-2-yl)benzamide] was run?
Answer: Its IC50 is 368 nM.

Question: And the IC50 (human orexin receptor 2)?
Answer: The IC50 was > 10000 nM.

Question: With `COc1cc(Br)cnc1N[C@H]1CCC[C@@H]1NC(=O)c1ccccc1-n1nccn1` [Example 119, N-[(1S,2S)-2-[(5-Bromo-3-methoxypyridin-2-yl)amino]cyclopentyl]-2-(2H-1,2,3-triazol-2-yl)benzamide] as the compound, how does the IC50 (human orexin receptor 1) read?
Answer: Its IC50 is 22 nM.

Question: And the IC50 (human orexin receptor 2)?
Answer: Its IC50 is 7800 nM.
